Assay results: patent US9718808B2, “Inhibitors of the renal outer medullary potassium channel” (Merck Sharp & Dohme Corp., priority 2014, dated 2017)

These molecules were tested against ROMK (Kir1.1) channel (Homo sapiens (Human), UniProt P48048) (assay: Thallium Flux Assay).
Sequence of ROMK (Kir1.1) channel (P48048 whole entry): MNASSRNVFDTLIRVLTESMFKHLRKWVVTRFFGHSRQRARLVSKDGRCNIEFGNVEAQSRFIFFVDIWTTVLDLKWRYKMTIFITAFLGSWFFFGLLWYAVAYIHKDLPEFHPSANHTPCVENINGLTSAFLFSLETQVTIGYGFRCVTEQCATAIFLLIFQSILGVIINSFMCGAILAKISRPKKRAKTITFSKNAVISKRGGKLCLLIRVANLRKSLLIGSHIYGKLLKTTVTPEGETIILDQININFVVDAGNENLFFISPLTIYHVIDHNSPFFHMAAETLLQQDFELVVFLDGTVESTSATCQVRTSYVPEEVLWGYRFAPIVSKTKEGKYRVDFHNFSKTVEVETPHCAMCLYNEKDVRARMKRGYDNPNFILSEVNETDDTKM
Assay type: cell-based
Description: A Thallium Flux Assay was performed on each of the final product compounds of the Examples. This assay has been described previously; see, e.g., PCT Published Application WO 2013/062900.
With `CCN(Cc1ccc2c(c1)Cn1nnnc1-2)[C@H]1CC[C@@]2(CCN(C3=C(C)C(=O)OC3)C2=O)CC1` [Example 133] the IC50 was 0.036 µM. With `CC1=C(N2CC[C@]3(CC[C@H](N(C)Cc4cnc(-n5cnnn5)cn4)CC3)C2=O)COC1=O` [Example 91] the IC50 was 0.69 µM. `CC1=C(N2CC[C@]3(CC[C@@H](N[C@H](C)c4ccc(-n5cnnn5)cn4)CC3)C2=O)COC1=O` [Example 32] showed an IC50 of 0.11 µM. With `CC1=C(N2CC[C@]3(CC[C@H](NCc4ccc(-n5cnnn5)nc4)CC3)C2=O)COC1=O` [Example 6, (5s,8s)-2-(4-methyl-5-oxo-2,5-dihydrofuran-3-yl)-8-({[6-(1H-tetrazol-1-yl)pyridin-3-yl]methyl}amino)-2-azaspiro[4.5]decan-1-one] the IC50 was 0.45 µM. `CC1=C(N2C(=O)[C@]3(CC[C@H](NCc4ccc5c(c4)Cn4nnnc4-5)CC3)C[C@@H]2C)COC1=O` [Example 56, (3S,5r,8S)-8-(((5H-tetrazolo[5,1-a]isoindol-7-yl)methyl)amino)-3-methyl-2-(4-methyl-5-oxo-2,5-dihydrofuran-3-yl)-2-azaspiro[4.5]decan-1-one] gave an IC50 of 0.52 µM. Work on `CC1=C(N2C(=O)[C@]3(CC[C@H](N(C)Cc4ccc5c(c4)Cn4nnnc4-5)CC3)C[C@@H]2C)COC1=O` [Example 120] yielded an IC50 of 0.043 µM. For `CC1=C(N2CC[C@]3(CC[C@H](N(C)Cc4ccc(-n5cnnn5)cn4)CC3)C2=O)COC1=O` [Example 87], the IC50 was 0.55 µM. “(5s,8s)-2-(4-methyl-5-oxo-2,5-dihydrofuran-3-yl)-8-({[5-(1H-tetrazol-1-yl)pyrazin-2-yl]methyl}amino)-2-azaspiro[4.5]decan-1-one [Example 13]” gave an IC50 of 0.032 µM. For `CN(Cc1ccc(-n2cnnn2)nn1)C1CCC2(CC1)CCN(C1=CC(=O)OC1)C2=O` (stereo not shown) [Example 103], the IC50 was 0.087 µM. With `CC1=C(N2CC[C@]3(CC[C@@H](N[C@@H](C)c4ccc5c(c4)Cn4nnnc4-5)CC3)C2=O)COC1=O` [Example 31, (5S,8r)-2-(4-methyl-5-oxo-2,5-dihydrofuran-3-yl)-8-{[(1S)-1-(5H-tetrazolo[5,1-a]isoindol-7-yl)ethyl]amino}-2-azaspiro[4.5]decan-1-one] the IC50 was 0.26 µM. For `C[C@@H]1C[C@]2(CC[C@@H](NCc3ccc(-n4cnnn4)nc3)CC2)C(=O)N1C1=CC(=O)OC1` [Example 23, (3R,5r,8R)-3-methyl-2-(5-oxo-2,5-dihydrofuran-3-yl)-8-({[6-(1H-tetrazol-1-yl)pyridin-3-yl]methyl}amino)-2-azaspiro[4.5]decan-1-one], the IC50 was 0.72 µM. `CC1=C(N2CC[C@]3(CC[C@H](N(C)Cc4ccc5c(c4)Cn4nnnc4-5)CC3)C2=O)COC1=O` [Example 89] gave an IC50 of 0.95 µM. Work on `CC1=C(N2CC[C@]3(CC[C@@H](NCCc4ccc5c(c4)COC5=O)CC3)C2=O)COC1=O` [Example 2, (5r,8r)-2-(4-methyl-5-oxo-2,5-dihydrofuran-3-yl)-8-{[2-(1-oxo-1,3-dihydro-2-benzofuran-5-yl)ethyl]amino}-2-azaspiro[4.5]decan-1-one] yielded an IC50 of 0.044 µM. In the case of `CC1=C(N2CC[C@]3(CC[C@H](NCc4ccc(-n5ncnn5)nn4)CC3)C2=O)COC1=O` [Example 74, (5s,8s)-8-(((6-(2H-tetrazol-2-yl)pyridazin-3-yl)methyl)amino)-2-(4-methyl-5-oxo-2,5-dihydrofuran-3-yl)-2-azaspiro[4.5]decan-1-one], the IC50 is reported as 0.21 µM. `CCN(Cc1ccc(-n2cnnn2)nc1)[C@H]1CC[C@]2(CCN(C3=C(C)C(=O)OC3)C2=O)CC1` [Example 134] gave an IC50 of 0.47 µM. With `CC1=C(N2CC[C@]3(CC[C@@](C)(N(C)Cc4cnc(-n5cnnn5)cn4)CC3)C2=O)COC1=O` [Example 129] the IC50 was 0.045 µM. `CC1=C(N2CC[C@]3(CC[C@H](N(C)Cc4ccc(-n5cnnn5)nc4)CC3)C2=O)COC1=O` [Example 83] gave an IC50 of 0.028 µM. `CC1=C(N2CC[C@]3(CC[C@H](NCc4ccc(-n5ncnn5)cc4)CC3)C2=O)COC1=O` [Example 40, (5s,8s)-2-(4-methyl-5-oxo-2,5-dihydrofuran-3-yl)-8-{[4-(2H-tetrazol-2-yl)benzyl]amino}-2-azaspiro[4.5]decan-1-one] was tested, and the IC50 was 0.11 µM. `CC1=C(N2CC[C@]3(CC[C@@H](NCc4nnc(-n5cnnn5)cc4C)CC3)C2=O)COC1=O` [Example 12, (5r,8r)-2-(4-methyl-5-oxo-2,5-dihydrofuran-3-yl)-8-({[4-methyl-6-(1H-tetrazol-1-yl)pyridazin-3-yl]methyl}amino)-2-azaspiro[4.5]decan-1-one] was tested, and the IC50 was 0.0083 µM. In the case of `C[C@H]1C[C@]2(CC[C@@H](NCc3ccc4c(c3)Cn3nnnc3-4)CC2)C(=O)N1C1=CC(=O)OC1` [Example 63, (3S,5r,8S)-8-(((5H-tetrazolo[5,1-a]isoindol-7-yl)methyl)amino)-3-methyl-2-(5-oxo-2,5-dihydrofuran-3-yl)-2-azaspiro[4.5]decan-1-one], the IC50 is reported as 0.023 µM. `CC1=C(N2CC[C@]3(CC[C@H](NCCc4ccc5c(c4)COC5=O)CC3)C2=O)COC1=O` [Example 3, (5s,8s)-2-(4-methyl-5-oxo-2,5-dihydrofuran-3-yl)-8-{[2-(1-oxo-1,3-dihydro-2-benzofuran-5-yl)ethyl]amino}-2-azaspiro[4.5]decan-1-one] gave an IC50 of 0.2 µM. `CC1=C(N2CC[C@]3(CC[C@H](N(C)C[C@H](O)c4ccc5c(c4C)COC5=O)CC3)C2=O)COC1=O` [Example 123] was tested, and the IC50 was 0.077 µM. With `CC1=C(N2CC[C@]3(CC[C@@H](N[C@H](C)c4ccc(-n5cnnn5)nc4)CC3)C2=O)COC1=O` [Example 10, (5R,8r)-8-(((R)-1-(6-(1H-tetrazol-1-yl)pyridin-3-yl)ethyl)amino)-2-(4-methyl-5-oxo-2,5-dihydrofuran-3-yl)-2-azaspiro[4.5]decan-1-one] the IC50 was 0.018 µM. In the case of `CC1=C(N2CC[C@]3(CC[C@H](N(CCO)Cc4ccc(-n5cnnn5)cn4)CC3)C2=O)COC1=O` [Example 136], the IC50 is reported as 0.16 µM. `CC1=C(N2CC[C@]3(CC[C@@H](N(C)Cc4ccc(-n5cnnn5)nc4)CC3)C2=O)COC1=O` [Example 84] was tested, and the IC50 was 0.74 µM. For `CC1=C(N2CC[C@]3(CC[C@H](N(C)[C@@H](CO)c4ccc(-n5cnnn5)nc4)CC3)C2=O)COC1=O` [Example 101], the IC50 was 0.29 µM. Molecule `CC1=C(N2CC[C@]3(CC[C@@](C)(NCc4ccc(-n5cnnn5)nn4)CC3)C2=O)COC1=O` [Example 48, (5r,8r)-8-methyl-2-(4-methyl-5-oxo-2,5-dihydrofuran-3-yl)-8-({[6-(1H-tetrazol-1-yl)pyridazin-3-yl]methyl}amino)-2-azaspiro[4.5]decan-1-one] has an IC50 of 0.0077 µM. `CC1=C(N2CC[C@]3(CC[C@H](N[C@H](C)c4ccc5c(c4)CCc4nnnn4-5)CC3)C2=O)COC1=O` [Example 17, (5S,8s)-8-{[(1R)-1-(4,5-dihydrotetrazolo[1,5-a]quinolin-7-yl)ethyl]amino}-2-(4-methyl-5-oxo-2,5-dihydrofuran-3-yl)-2-azaspiro[4.5]decan-1-one] gave an IC50 of 0.34 µM. `CC1=C(N2CC[C@]3(CC[C@@H](NCc4ccc(-n5ncnn5)nn4)CC3)C2=O)COC1=O` [Example 75, (5r,8r)-8-(((6-(2H-tetrazol-2-yl)pyridazin-3-yl)methyl)amino)-2-(4-methyl-5-oxo-2,5-dihydrofuran-3-yl)-2-azaspiro[4.5]decan-1-one] gave an IC50 of 0.0093 µM. `CC1=C(N2CC[C@]3(CC[C@@H](NCc4ccc(-n5ncnn5)cc4)CC3)C2=O)COC1=O` [Example 41, (5r,8r)-2-(4-methyl-5-oxo-2,5-dihydrofuran-3-yl)-8-{[4-(2H-tetrazol-2-yl)benzyl]amino}-2-azaspiro[4.5]decan-1-one] gave an IC50 of 0.0033 µM. `C[C@@H]1C[C@]2(CC[C@H](NCc3ccc4c(c3)Cn3nnnc3-4)CC2)C(=O)N1C1=CC(=O)OC1` [Example 65, (3R,5s,8S)-8-(((5H-tetrazolo[5,1-a]isoindol-7-yl)methyl)amino)-3-methyl-2-(5-oxo-2,5-dihydrofuran-3-yl)-2-azaspiro[4.5]decan-1-one] showed an IC50 of 0.019 µM. With `CC1=C(N2CC[C@]3(CC[C@@H](NCc4ccc5c(c4)C(C)n4nnnc4-5)CC3)C2=O)COC1=O` (stereo partly shown) [Example 53, (5r,8r)-2-(4-methyl-5-oxo-2,5-dihydrofuran-3-yl)-8-(((5-methyl-5H-tetrazolo[5,1-a]isoindol-7-yl)methyl)amino)-2-azaspiro[4.5]decan-1-one] the IC50 was 0.019 µM. Work on `CC1=C(N2CC[C@]3(CC[C@H](NCc4ccc5c(c4C)COC5=O)CC3)C2=O)COC1=O` [Example 4, (5s,8s)-8-(((4-methyl-1-oxo-1,3-dihydroisobenzofuran-5-yl)methyl)amino)-2-(4-methyl-5-oxo-2,5-dihydrofuran-3-yl)-2-azaspiro[4.5]decan-1-one] yielded an IC50 of 0.35 µM. With `CC1=C(N2CC[C@]3(CC[C@H](N(CC(=O)N(C)C)Cc4ccc(-n5cnnn5)nc4)CC3)C2=O)COC1=O` [Example 139] the IC50 was 0.12 µM. For `CC1=C(N2CC[C@]3(CC[C@H](N[C@H](CO)c4ccc(-n5cnnn5)nc4)CC3)C2=O)COC1=O` [Example 77], the IC50 was 0.36 µM. `CC1=C(N2CC[C@]3(CC[C@](C)(N(C)Cc4ccc(-n5cnnn5)nn4)CC3)C2=O)COC1=O` [Example 115] gave an IC50 of 0.015 µM. Molecule `C[C@H]1C[C@]2(CC[C@@H](N(C)Cc3ccc(-n4cnnn4)nn3)CC2)C(=O)N1C1=CC(=O)OC1` [Example 104, (3S,5r,8S)-8-(((6-(1H-tetrazol-1-yl)pyridazin-3-yl)methyl)(methyl)amino)-3-methyl-2-(5-oxo-2,5-dihydrofuran-3-yl)-2-azaspiro[4.5]decan-1-one] has an IC50 of 0.041 µM. In the case of `CC1=C(N2CC[C@]3(CC[C@@H](N[C@H](C)c4cnc(-n5cnnn5)cn4)CC3)C2=O)COC1=O` [Example 24, (5R,8r)-2-(4-methyl-5-oxo-2,5-dihydrofuran-3-yl)-8-({(1R)-1-[5-(1H-tetrazol-1-yl)pyrazin-2-yl]ethyl}amino)-2-azaspiro[4.5]decan-1-one], the IC50 is reported as 0.12 µM. For `CC1=C(N2CC[C@]3(CC[C@@H](N(CCO)Cc4ccc(-n5cnnn5)nc4)CC3)C2=O)COC1=O` [Example 130, (5r,8r)-8-(((6-(1H-tetrazol-1-yl)pyridin-3-yl)methyl)(2-hydroxyethyl)amino)-2-(4-methyl-5-oxo-2,5-dihydrofuran-3-yl)-2-azaspiro[4.5]decan-1-one], the IC50 was 0.03 µM. `CC1=C(N2CC[C@]3(CC[C@@H](N(C)Cc4ccc5c(c4)Cn4nnnc4-5)CC3)C2=O)COC1=O` [Example 90] was tested, and the IC50 was 0.022 µM.
